Target: T1, mPz1 (mouse Piezo1) (Mus musculus, UniProt E2JF22)
T1 construct: full-length, mPz1-IRES-GFP plasmid (clone from A. Patapoutian) in mouse Neuro2A cells; also purified/enriched mPz1 in planar lipid bilayer; homotrimer
Assay: single-channel recording in planar lipid bilayer
Type: biochemical
Settings: purified mPz1, 500 mM KCl, 10 mM MOPS, pH 7.4

T1 sequence (E2JF22 whole entry): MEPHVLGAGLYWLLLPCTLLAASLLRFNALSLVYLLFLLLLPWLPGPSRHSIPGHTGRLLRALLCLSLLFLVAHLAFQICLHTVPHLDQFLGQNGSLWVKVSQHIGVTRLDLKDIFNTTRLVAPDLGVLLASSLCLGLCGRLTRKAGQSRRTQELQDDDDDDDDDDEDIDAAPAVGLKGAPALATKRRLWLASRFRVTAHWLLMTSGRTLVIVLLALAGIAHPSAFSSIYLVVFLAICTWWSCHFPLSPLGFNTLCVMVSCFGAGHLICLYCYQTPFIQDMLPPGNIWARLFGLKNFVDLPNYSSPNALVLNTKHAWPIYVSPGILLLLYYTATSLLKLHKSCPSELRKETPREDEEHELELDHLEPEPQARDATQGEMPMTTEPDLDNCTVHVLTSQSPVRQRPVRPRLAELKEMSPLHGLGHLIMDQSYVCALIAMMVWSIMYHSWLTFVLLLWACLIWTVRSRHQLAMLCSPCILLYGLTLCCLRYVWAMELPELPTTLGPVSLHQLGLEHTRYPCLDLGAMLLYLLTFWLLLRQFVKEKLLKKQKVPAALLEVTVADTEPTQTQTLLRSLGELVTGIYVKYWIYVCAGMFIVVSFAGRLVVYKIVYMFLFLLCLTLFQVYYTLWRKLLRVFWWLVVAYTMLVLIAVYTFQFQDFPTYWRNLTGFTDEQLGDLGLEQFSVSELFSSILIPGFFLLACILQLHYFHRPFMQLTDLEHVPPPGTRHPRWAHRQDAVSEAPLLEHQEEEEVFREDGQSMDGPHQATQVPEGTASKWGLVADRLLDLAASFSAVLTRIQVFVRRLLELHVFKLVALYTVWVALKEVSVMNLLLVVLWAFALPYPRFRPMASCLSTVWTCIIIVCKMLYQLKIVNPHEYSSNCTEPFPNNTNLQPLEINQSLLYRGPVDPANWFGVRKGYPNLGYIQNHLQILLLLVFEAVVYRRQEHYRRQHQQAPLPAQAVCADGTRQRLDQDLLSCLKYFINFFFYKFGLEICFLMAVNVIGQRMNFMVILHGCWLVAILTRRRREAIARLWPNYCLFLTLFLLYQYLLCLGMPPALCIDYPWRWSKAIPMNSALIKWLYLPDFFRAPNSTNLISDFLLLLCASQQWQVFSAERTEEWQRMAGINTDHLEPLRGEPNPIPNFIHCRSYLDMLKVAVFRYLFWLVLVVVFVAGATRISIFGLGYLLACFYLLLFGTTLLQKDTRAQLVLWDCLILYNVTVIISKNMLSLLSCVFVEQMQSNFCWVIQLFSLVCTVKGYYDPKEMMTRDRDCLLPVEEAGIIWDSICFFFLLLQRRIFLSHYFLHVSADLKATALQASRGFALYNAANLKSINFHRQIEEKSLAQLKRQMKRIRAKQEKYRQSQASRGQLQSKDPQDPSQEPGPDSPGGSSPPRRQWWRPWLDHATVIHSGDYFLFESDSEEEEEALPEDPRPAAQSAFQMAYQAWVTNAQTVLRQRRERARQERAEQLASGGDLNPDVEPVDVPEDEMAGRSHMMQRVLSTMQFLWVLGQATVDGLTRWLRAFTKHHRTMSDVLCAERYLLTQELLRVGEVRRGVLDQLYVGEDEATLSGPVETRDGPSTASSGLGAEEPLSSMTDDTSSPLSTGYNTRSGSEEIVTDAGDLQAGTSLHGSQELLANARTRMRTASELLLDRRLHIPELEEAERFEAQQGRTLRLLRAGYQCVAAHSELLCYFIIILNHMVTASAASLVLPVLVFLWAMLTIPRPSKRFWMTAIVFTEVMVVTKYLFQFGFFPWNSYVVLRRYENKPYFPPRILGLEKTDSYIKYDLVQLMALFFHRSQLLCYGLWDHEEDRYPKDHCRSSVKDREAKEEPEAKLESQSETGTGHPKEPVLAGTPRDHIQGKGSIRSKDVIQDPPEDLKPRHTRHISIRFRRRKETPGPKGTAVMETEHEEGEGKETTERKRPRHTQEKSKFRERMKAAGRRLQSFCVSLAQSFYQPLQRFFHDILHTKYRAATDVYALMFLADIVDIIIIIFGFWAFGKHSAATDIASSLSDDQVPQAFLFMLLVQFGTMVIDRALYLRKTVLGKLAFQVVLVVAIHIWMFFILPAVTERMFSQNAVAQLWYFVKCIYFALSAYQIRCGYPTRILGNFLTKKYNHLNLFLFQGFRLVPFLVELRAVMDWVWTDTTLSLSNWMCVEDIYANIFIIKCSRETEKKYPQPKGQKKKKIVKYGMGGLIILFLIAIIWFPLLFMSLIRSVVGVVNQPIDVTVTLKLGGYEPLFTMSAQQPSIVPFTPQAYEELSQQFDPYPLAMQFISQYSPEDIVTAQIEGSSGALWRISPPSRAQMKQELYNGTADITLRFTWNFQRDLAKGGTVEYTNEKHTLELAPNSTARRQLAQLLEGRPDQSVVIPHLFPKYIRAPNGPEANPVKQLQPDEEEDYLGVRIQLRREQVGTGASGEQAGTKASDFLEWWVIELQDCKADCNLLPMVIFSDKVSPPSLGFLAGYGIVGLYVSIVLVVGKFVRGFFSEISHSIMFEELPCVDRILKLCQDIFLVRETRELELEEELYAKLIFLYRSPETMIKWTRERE

CN[C@@H]1[C@H](O[C@H]2[C@H](O[C@H]3[C@H](O)[C@@H](O)[C@H](N=C(N)N)[C@@H](O)[C@@H]3N=C(N)N)O[C@@H](C)[C@]2(O)CO)O[C@@H](CO)[C@H](O)[C@H]1O [dihydrostreptomycin]
single-channel recording in planar lipid bilayer: DHS, GsMTx4, and ruthenium blocked the mPz1-channel activity in lipid bilayers
